# Source: patent US20040072211A1, “Methods for identifying ligands using waterlogsy NMR” (PHARMACIA & UPJOHN COMPANY, priority 2002, published 2004)
# Read-outs that look alike come from different tables or passages of the source.
# Key:
# [1] = biological target: T1, Human Serum Albumin (HSA) (Homo sapiens, UniProt P02768); assay: One-dimensional WaterLOGSY NMR spectra of methyl-tryptophan derivatives with HSA; format: binding; design: purchased Sigma A-3782; conditions: 50 μM compound, 5 μM HSA, PBS pH 7.4, 293 K
# Procedure: FIG. 2. […] Positive and negative signals identify HSA binding and noninteracting molecules, respectively.
# Diazepam was purchased from Carlo Erba. The NMR samples were in phosphate buffered saline (PBS) buffer (Sigma) pH 7.4. D2O was added to the solutions (8% final concentration) for the lock signal.
# (§1) NMR Experiments. […] For each sample a reference spectrum and a ID WaterLOGSY spectrum were recorded. […] The 1st water selective 180° pulse was 25 milliseconds (ms) long. A weak rectangular PFG is applied during the entire length of the mixing time (1.5 seconds (s)). A short gradient recovery time of 2 ms was introduced at the end of the mixing time before the detection pulse. […] The gradient recovery time was 0.2 s. […] Prior to Fourier transformation the data were multiplied with an exponential function with a line broadening of 1 Hz.
# Therefore in an effort to identify a potential reference molecule, three methyl-tryptophan derivatives, namely 5-CH3, 6-CH3, and 7-CH3 Trp, were selected.
# [2] = biological target: T1, Human Serum Albumin (HSA); assay: biochemical; conditions: for Interaction with HSA by ITC binding heat effects: 30 μM protein, 1.5 mM ligand
# Procedure: FIG. 3. Isothermal titration calorimetry (ITC) data measured on the binding of tryptophan analogues to HSA. […] Dilution heats were collected in blank titrations and were subtracted from the data. […] The solid line represents a calculated curve using the best-fit parameters obtained by a nonlinear least-squares fit to the measured data.
# ITC Experiments. […] Heats of dilution were measured in blank titrations by injecting the […] into the buffer used in the particular experiment and were subtracted from the binding heats. Thermodynamic parameters were determined by non-linear least squares methods using routines included in the Origin software package (MicroCal).
# [3] = biological target: T1, Human Serum Albumin (HSA); assay: c-WaterLOGSY competition binding experiment, displacement of reference compound 6-CH3 Trp from HSA; design: purchased Sigma A-3782
# Procedure: as §1
# [4] = biological target: Human Serum Albumin (HSA) site II (Homo sapiens, UniProt P02768); conditions: literature knowledge; cited from earlier work
# Human Serum Albumin (HSA) site II, sequence (P02768 25-609): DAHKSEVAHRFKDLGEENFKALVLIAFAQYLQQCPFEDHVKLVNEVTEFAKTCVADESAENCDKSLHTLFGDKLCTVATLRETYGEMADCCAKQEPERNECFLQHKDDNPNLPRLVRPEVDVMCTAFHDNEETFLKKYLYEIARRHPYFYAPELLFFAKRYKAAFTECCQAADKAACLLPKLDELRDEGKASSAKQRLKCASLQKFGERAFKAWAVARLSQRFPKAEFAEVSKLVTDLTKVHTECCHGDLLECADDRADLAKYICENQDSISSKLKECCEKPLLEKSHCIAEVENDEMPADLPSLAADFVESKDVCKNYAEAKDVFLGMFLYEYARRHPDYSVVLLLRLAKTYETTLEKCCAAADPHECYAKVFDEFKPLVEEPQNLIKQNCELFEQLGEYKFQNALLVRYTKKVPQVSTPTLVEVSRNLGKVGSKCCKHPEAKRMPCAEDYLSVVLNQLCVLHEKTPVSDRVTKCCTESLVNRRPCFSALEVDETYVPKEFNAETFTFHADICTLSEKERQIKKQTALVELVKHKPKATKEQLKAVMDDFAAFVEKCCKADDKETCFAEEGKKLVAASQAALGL
# T1 sequence (P02768 25-609): as above
structure (smiles),measurement,setting,value
"Cc1ccc2[nH]cc(CC(N)C(=O)O)c2c1 (racemic) [5-CH3 Trp, 5-CH3-D,L-Trp]","Interaction with HSA by sign of WaterLOGSY signal (positive = binding, negative = noninteracting)",[1],do not interact with the protein
same,Interaction with HSA by ITC binding heat effects,"[2]; PBS, 298 K",No net binding heat effects
OC[C@H]1O[C@@](CO)(O[C@H]2O[C@H](CO)[C@@H](O)[C@H](O)[C@H]2O)[C@@H](O)[C@@H]1O [Sucrose],Signal intensity change of the 6-CH3 Trp reference WaterLOGSY signal in presence of the competitor,[3],No signal intensity change
"Cc1cccc2c(CC(N)C(=O)O)c[nH]c12 (racemic) [7-CH3 Trp, 7-CH3-D,L-Trp]","Interaction with HSA by sign of WaterLOGSY signal (positive = binding, negative = noninteracting)",[1],do not interact with the protein
same,Signal intensity change of the 6-CH3 Trp reference WaterLOGSY signal in presence of the competitor,"[3]; 10 μM competitor, 50 μM 6-CH3 D,L Trp, 5 μM HSA",No signal intensity change
same,Interaction with HSA by ITC binding heat effects,"[2]; PBS, 298 K",No net binding heat effects
"Cc1ccc2c(CC(N)C(=O)O)c[nH]c2c1 (racemic) [6-CH3 Trp, 6-CH3-D,L-Trp]","Interaction with HSA by sign of WaterLOGSY signal (positive = binding, negative = noninteracting)",[1],ligand for HSA
same,Kd,[2],37 µM
same,association binding constant (KB),[2],2.7±0.2 10^4 Mol^−1
same,Interaction with HSA by ITC binding heat effects,"[2]; PBS, 298 K",negative binding heats were observed
same,ΔH^obs,"[2]; ITC, 298 K, PBS",1.9 ± 0.1 kcal/mol
same,ΔS,"[2]; ITC, 298 K, PBS",13.79 cal/(mol K)
N[C@@H](Cc1c[nH]c2ccccc12)C(=O)O [tryptophan],Binding site on HSA,[4],binds also on site II of HSA
